{"source": "patent US20070088090A1", "about": "“Alpha-bulnesene, its preparation and its use” (Yangsen Biotechnology Co., Ltd., priority 2005, published 2007)", "key": {"[1]": {"test_system": "AA-induced platelet aggregation", "assay": "AA-induced platelet aggregation in rabbit washed platelets", "assay_type": "cell-based", "settings": "AA 100 μM", "method": "Platelet suspension was prepared as follows. Blood was collected from the marginal ear vein of New Zealand White rabbits. The blood was then anticoagulated with acid citrate dextrose (ACD, 1:6, v/v) and centrifuged for 8 min at 1000×g at room temperature. The upper portion was collected as platelet-rich plasma (PRP) and mixed with EDTA to a final concentration of 5 mM. The platelet pellets were obtained from EDTA-mixed PRP by centrifugation for 12 min at 2000×g. The platelet pellets were suspended with Ca^2+-free Tyrode's solution, and then incubated with apyrase (1 unit mL^−1) for 15 min at 37° C. […] The concentration of platelets was adjusted to 2.5×10^8 platelets mL^−1.\nPlatelet aggregation was measured turbidimetrically with a light-transmission Platelet Aggregation Chromogenic Kinetic System PACK4 (Helena Laboratories, Beaumont, Tex., USA) with some modifications. […] Aggregation was induced with PAF (5 nM) and AA (100 μM). The absorbance of the Tyrode's solution was taken as 0% aggregation and that of the platelet suspension as 100% aggregation. The extent of platelet aggregation was measured as the maximal increase of light transmission within 4 min after addition of the inducers. When isopropanol was used as the solvent the final concentration was fixed at 0.5% (v/v) to eliminate the effect of the solvent. All glassware was siliconized."}, "[2]": {"test_system": "PAF-induced platelet aggregation", "assay": "PAF-induced platelet aggregation in rabbit washed platelets", "assay_type": "cell-based", "settings": "PAF 5 nM, read-out: IC50, inhibition of platelet aggregation induced by PAF", "method": "Blood samples were collected from the marginal ear artery of New Zealand white rabbits. The blood was then treated to obtained platelet-rich plasma (PRP) mixed with EDTA. The platelet pellet was obtained from the EDTA-anticoagulated PRP by centrifugation. The pellet was then suspended in Tyrode solution and incubated. Platelet numbers were then counted.\nThe platelet suspension was stirred with solvent of test compound in solvent of different concentrations. Aggregation inducer PAF was then added to trigger the aggregation. Aggregation was determined by the transmission method using a platelet aggregation chromogenic kinetic system. The initial transmittance of the Ca^2+-containing Tyrode solution was taken as 0% aggregation and that of the platelet suspension as 100% aggregation. […] Percent inhibition by a compound was calculated.\nPlatelet suspension was prepared as follows. […]\nPlatelet aggregation was measured turbidimetrically with a light-transmission Platelet Aggregation Chromogenic Kinetic System PACK4 (Helena Laboratories, Beaumont, Tex., USA) with some modifications. […] The absorbance of the Tyrode's solution was taken as 0% aggregation and that of the platelet suspension as 100% aggregation. The extent of platelet aggregation was measured as the maximal increase of light transmission within 4 min after addition of the inducers. […]"}, "PAF receptor": {"target": "T1, PAF receptor (Oryctolagus cuniculus, UniProt G1TEI7)", "T1 construct": "from tissue; host or cells: rabbit washed platelets (intact)", "T1 sequence (G1TEI7 1-342)": "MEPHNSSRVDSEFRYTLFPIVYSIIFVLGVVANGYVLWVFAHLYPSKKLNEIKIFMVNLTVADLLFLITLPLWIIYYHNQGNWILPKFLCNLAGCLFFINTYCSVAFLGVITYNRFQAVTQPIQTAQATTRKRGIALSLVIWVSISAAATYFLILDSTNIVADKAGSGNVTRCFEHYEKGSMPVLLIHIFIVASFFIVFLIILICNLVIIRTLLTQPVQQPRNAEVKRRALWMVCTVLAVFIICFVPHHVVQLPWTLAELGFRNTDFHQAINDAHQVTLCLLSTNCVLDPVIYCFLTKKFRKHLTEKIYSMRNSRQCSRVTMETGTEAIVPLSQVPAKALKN", "assay": "[3H]PAF receptor binding assay using rabbit washed platelets", "protocol": "[^3H]PAF receptor binding assay is prepared using rabbit washed platelets. […] The reaction mixture was incubated at 4° C. for 2 hrs and then 5 mL of BSA-containing saline solution was added to terminate the reactions. The free and bound ligands were separated by filtration using a Whtman GF/C glass fiber filters which were presoaked with ice-cold water. The filters were rapidly washed with the same solution and then dried and placed into vials containing 10 mL of the scintillation fluid. Radioactivity was measured in a liquid scintillation counter (Beckman LS3801). The difference between the total radioactivity of bound [^3H]PAF in the absence and in the presence of excess unlabeled PAF is defined as specific binding of the radio-labeled ligand. In a batch of experiments, [^3H]PAF was incubated with different concentrations of PAF receptor antagonists, and the effect of the antagonist on the specific binding was expressed as percentage inhibition of the control.\nPercent inhibition (%)=[100−(B/A×100)](%)\nwherein A represents percent aggregation in control added and B represents percent aggregation in compound added."}, "PGE2 formation": {"test_system": "PGE2 formation", "assay": "Prostaglandin E2 formation induced by AA in rabbit washed platelets (EIA)", "assay_type": "cell-based", "settings": "AA 100 μM", "protocol": "(§1) After challenging platelets with AA (100 μM) for 6 min, 1 mM EDTA and 20 μM indomethacin were added to terminate the reaction. By centrifugation for 5 min at 4° C. and 10,000×g, the TXB2 and PGE2 in the supernatants were assayed using EIA kits according to the procedure described by the manufacturer."}, "TXB2 formation": {"test_system": "TXB2 formation", "assay": "Thromboxane B2 formation induced by AA in rabbit washed platelets (EIA)", "assay_type": "cell-based", "settings": "AA 100 μM, 6 min", "protocol": "as §1"}, "[3]": {"test_system": "PAF-induced intracellular Ca2+ release", "assay": "PAF-induced intracellular Ca2+ release in fluo-3-loaded platelets", "assay_type": "cell-based, rabbit", "settings": "PAF 5 nM, 2.5-50 μM, read-out: IC50, inhibition of PAF-induced intracellular Ca2+ release", "protocol": "Platelets pelleted from PRP were resuspended in Ca^2+-free Tyrode's solution, and then incubated with fluo-3/AM (2 μM) at 37° C. for 30 min. In order to prevent leakage of dye, probenecid (2.5 mM) was added to the buffers throughout the experiments. After washing, the fluo-3-loaded platelets were finally suspended in Ca^2+-free Tyrode's solution without heparin at a concentration of 1.3×10^8 platelets mL^−1. The fluo-3-loaded platelets were preincubated with α-bulnesene in the presence of extracellular calcium (1 mM) at 37° C. for 2 min prior to addition of PAF. Fluorescence (Ex 505 nm, Em 530 nm) was measured with a fluorescence spectrophotometer (Model F4500; Hitachi, Tokyo, Japan). At the end of the experiment, the cells were treated with digitonin (20%) followed by the addition of EGTA (50 mM) to obtain the maximal and minimal fluorescence, respectively. [Ca^2+]i was calculated as described for fluo-3/AM using the Ca^2+-dye dissociation constant 864 nM."}, "rabbit platelets": {"test_system": "rabbit platelets", "assay": "Cytotoxicity assay in rabbit platelets", "assay_type": "cell-based", "settings": "12.5-50 μM, 30 min treatment, data not shown"}}}
{"compound": "CCCCCCCCCCCCCCCCCCNC(=O)OCC(COP(=O)([O-])OCC[n+]1ccsc1)OC", "note": "(centres unmarked) [CV-3988]", "values": [{"measurement": "inhibition on AA-induced platelet aggregation", "setting": "[1]", "result": "no inhibition"}, {"measurement": "IC50", "setting": "[2]", "result": "2.4 ± 1.01", "unit": "µM"}, {"measurement": "percent inhibition for [3H]PAF binding", "setting": "PAF receptor; 10 μM, n=3", "result": "10.10±1.74", "unit": "%"}]}
{"compound": "COc1ccc2c(c1)c(CC(=O)O)c(C)n2C(=O)c1ccc(Cl)cc1", "note": "[Indomethacin, indomethacin]", "values": [{"measurement": "PGE2 formation in the presence of AA", "setting": "PGE2 formation; indomethacin, concentration not restated (1 μM as positive control)", "result": "inhibited"}, {"measurement": "inhibition at 1 µM", "setting": "TXB2 formation; Oryctolagus cuniculus, Platelet, 0.1 h, 1 μM, read-out: percent inhibition of TXB2 formation", "result": "98.05 ± 0.16", "unit": "%"}]}
{"compound": "O=C(O)c1cc2cc(Cc3cccnc3)ccc2o1", "note": "[furegrelate]", "values": [{"measurement": "PGE2 formation in the presence of AA", "setting": "PGE2 formation; 300 μM", "result": "reversely enhanced"}, {"measurement": "inhibition at 300 µM", "setting": "TXB2 formation; Oryctolagus cuniculus, Platelet, 0.1 h, 300 μM, read-out: percent inhibition of TXB2 formation", "result": "96.49 ± 0.78", "unit": "%"}]}
{"compound": "C=C(C)C1CCC(C)=C2CCC(C)C2C1", "note": "(stereo not drawn) [α-bulnesene, 1β,4-dimethyl-7β-isopropenyl-1,2,3,5,6,7,8,8aα-octahydroazulene]", "values": [{"measurement": "IC50", "setting": "[1]; read-out: IC50, inhibition of platelet aggregation induced by AA", "result": "42.5 ± 5.97", "unit": "µM"}, {"measurement": "IC50", "setting": "[2]", "result": "24.5 ± 2.45", "unit": "µM"}, {"measurement": "PGE2 formation in the presence of AA", "setting": "PGE2 formation; 25-100 μM, 6 min", "result": "inhibited"}, {"measurement": "IC50", "setting": "[3]", "result": "19.6 ± 1.32", "unit": "µM"}, {"measurement": "TXB2 formation stimulated by AA", "setting": "TXB2 formation; 25-100 μM", "result": "inhibited"}, {"measurement": "toxicity in rabbit platelets", "setting": "rabbit platelets", "result": "did not have any toxicity"}, {"measurement": "IC50", "setting": "PAF receptor; 0.2 nM [3H]PAF, 4° C., 2 hrs", "result": "17.6 ± 5.68", "unit": "µM"}]}
